Source: PubChem BioAssay AID1845201 (Molecular Pharmacology Branch, DTP, NCI, 2023)

Tested on: COR L88 complex tumor spheroid viability
Assay: Anticancer human tumor COR L88 cell line growth inhibition;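 note: compound exposure lasted 7 days before viability readout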;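 for viability, T/C: percent of DMSO vehicle-treated spheroids = 100%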
Conditions: for IC50: curve of first compound; for viability, T/C: stronger effect = lower value
Source text: Multicellular complex tumor spheroid response to DNA repair inhibitors in combination with DNA-damaging drugs
This study explores the anticancer activities of DNA-damaging drugs and inhibitors of DNA damage repair, both as single agents and in combinations. Complex tumor spheroids comprised of malignant cells, endothelial cells and mesenchymal stem cells served as an in vitro model for human solid tumors. This model system incorporates physiologically relevant features and patient-derived or established malignant cell lines with clinically relevant genetic alterations from many tumor types. Twenty-six patient-derived or established malignant cell lines were evaluated representing sarcoma, melanoma, small cell lung cancer (SCLC), non-small cell lung cancer (NSCLC), as well as bladder, ovarian and pancreatic cancers. The concentration ranges selected for each drug and investigational agent were based upon clinically achievable concentrations if the clinical Cmax of the agent was known.
Compounds. The drugs and compounds olaparib (NSC753686), talazoparib (NSC767125), berzosertib (NSC777718), elimusertib (NSC800525), nedisertib (NSC802822), VX-984 (NSC792969), AZD-1390 (NSC803789), temozolomide (NSC362856), topotecan (NSC609699), trabectedin (NSC813783), staurosporine (NSC755774), and gemcitabine (NSC613327) were obtained from the National Cancer Institute (NCI) Developmental Therapeutics Program Chemical Repository. The FDA-approved anticancer drug set is available from the Developmental Therapeutics Program at https://dtp.cancer.gov/organization/dscb/obtaining/available_plates.htm. […] The stock solutions were prepared in dimethyl sulfoxide (DMSO, Sigma-Aldrich, St. Louis, MO, cat. D2650) at 400-fold the tested concentration and stored at -70 degrees C. Prior to their use, the stock solutions were diluted in fresh medium and the final DMSO concentration in the assay was 0.25% (v/v). All drugs and investigational agents were tested over a range starting from a high concentration at or near the clinical Cmax and decreasing in half-log increments. If the clinical Cmax for an agent had not been determined, the highest concentration tested was 10 microM.
Cell Lines. The patient-derived cancer cell (PDC) lines: 156681-154-R-J1-PDC, 283228-195-R-J1-PDC, 287954-098-R-J1-PDC, 292921-168-R-J2-PDC, 349418-098-R-PDC, 425362-245-T-J1-PDC, 556581-035-R-J1-PDC, and BL0293-F563-PDC were received from the NCI Patient-Derived Models Repository (PDMR, https://pdmr.cancer.gov). The established cell lines HS-SY-2 (RRID:CVCL_8719), MPNST, and SYO-1 (RRID:CVCL_7146) were obtained from the Sloan Kettering Institute. The alveolar soft parts sarcoma cell line ASPS-1 (RRID:CVCL_S738) was established at the NCI and grown from internal seed stocks. The following established cell lines were purchased from the American Type Culture Collection (ATCC, Manassas, VA): G-401 (ATCC, cat. CRL-1441, RRID:CVCL_0270), SW982 (ATCC, cat. HTB-93, RRID:CVCL_1734), VA-ES-BJ (ATCC, cat. CRL-2138, RRID:CVCL_1785), NCI-H719 (ATCC, cat. CRL-5837, RRID:CVCL_1582), NCI-H196 (ATCC, cat. CRL-5823, RRID:CVCL_1509), NCI-H841 (ATCC, cat. CRL-5845, RRID:CVCL_1595), NCI-H1618 (ATCC, cat. CRL-5879, RRID:CVCL_1480), NCI-H1876 (ATCC, cat. CRL-5902, RRID:CVCL_1503), DMS 114 (ATCC, cat. CRL-2066; RRID:CVCL_1174), NCI-H211 (ATCC, cat. CRL-5824; RRID:CVCL_1529), and SW 1271 (ATCC, cat. CRL-2177, RRID:CVCL_1716). The small cell lung cancer cell line COR-L88 was purchased from Sigma-Aldrich (cat. 92031917-1VL, RRID:CVCL_1141). The non-small cell lung cancer cell lines NCI-H226 (RRID:CVCL_1544) and NCI-H322M (RRID:CVCL_1557) were established at the NCI and grown from internal seed stocks. Pooled donor human umbilical vein endothelial cells (HUVEC, Lonza, cat. CC-2519) and human mesenchymal stem cells (hMSC, Lonza, cat. PT-2501) were purchased from Lonza (Walkersville, MD).
Cell Culture. All cells were maintained in an incubator at 37 degrees C and 5% CO2 with 95% humidity. […]

Structure (SMILES): CNCc1ccc(-c2cc(-c3nc(-c4ccc(S(=O)(=O)C(C)C)cc4)cnc3N)on2)cc1 + CC[C@@]1(O)C(=O)OCc2c1cc1n(c2=O)Cc2cc3c(CN(C)C)c(O)ccc3nc2-1
- IC50 (second compound 0.003 µM): 497 nM
- IC50 (second compound 0.00949 µM): 393 nM
- IC50 (second compound 0.03 µM): 149 nM
- IC50 (second compound 0.0949 µM): 22.6 nM
- IC50 (second compound 0.3 µM): < 9.49 nM
- viability, T/C (second compound 0.003 µM, first compound 0.00949 µM): 94.4%
- viability, T/C (second compound 0.003 µM, first compound 0.03 µM): 102%
- viability, T/C (second compound 0.003 µM, first compound 0.0949 µM): 105%
- viability, T/C (second compound 0.003 µM, first compound 0.3 µM): 64.2%
- viability, T/C (second compound 0.003 µM, first compound 0.949 µM): 30.1%
- viability, T/C (second compound 0.003 µM, first compound 3 µM): 9.59%
- viability, T/C (second compound 0.00949 µM, first compound 0.00949 µM): 103%
- viability, T/C (second compound 0.00949 µM, first compound 0.03 µM): 99.7%
- viability, T/C (second compound 0.00949 µM, first compound 0.0949 µM): 88.2%
- viability, T/C (second compound 0.00949 µM, first compound 0.3 µM): 53.7%
- viability, T/C (second compound 0.00949 µM, first compound 0.949 µM): 30%
- viability, T/C (second compound 0.00949 µM, first compound 3 µM): 9.92%
- viability, T/C (second compound 0.03 µM, first compound 0.00949 µM): 60.8%
- viability, T/C (second compound 0.03 µM, first compound 0.03 µM): 63.6%
- viability, T/C (second compound 0.03 µM, first compound 0.0949 µM): 62.6%
- viability, T/C (second compound 0.03 µM, first compound 0.3 µM): 32.5%
- viability, T/C (second compound 0.03 µM, first compound 0.949 µM): 17.3%
- viability, T/C (second compound 0.03 µM, first compound 3 µM): 9.44%
- viability, T/C (second compound 0.0949 µM, first compound 0.00949 µM): 55.3%
- viability, T/C (second compound 0.0949 µM, first compound 0.03 µM): 49.5%
- viability, T/C (second compound 0.0949 µM, first compound 0.0949 µM): 24.9%
- viability, T/C (second compound 0.0949 µM, first compound 0.3 µM): 16.2%
- viability, T/C (second compound 0.0949 µM, first compound 0.949 µM): 11.7%
- viability, T/C (second compound 0.0949 µM, first compound 3 µM): 7.2%
- viability, T/C (second compound 0.3 µM, first compound 0.00949 µM): 43%
- viability, T/C (second compound 0.3 µM, first compound 0.03 µM): 29.2%
- viability, T/C (second compound 0.3 µM, first compound 0.0949 µM): 14.9%
- viability, T/C (second compound 0.3 µM, first compound 0.3 µM): 9.3%
- viability, T/C (second compound 0.3 µM, first compound 0.949 µM): 7.79%
- viability, T/C (second compound 0.3 µM, first compound 3 µM): 5.02%

Structure (SMILES): Cc1cc(C)c(CNC(=O)c2cc(-c3ccc(CN4CCOCC4)cc3)cc3c2cnn3C2CCCC2)c(=O)[nH]1 + COc1cc2c(cc1O)CCNC21CSC2c3c(OC(C)=O)c(C)c4c(c3C(COC1=O)N1C(O)C3Cc5cc(C)c(OC)c(O)c5C(C21)N3C)OCO4
- IC50 (second compound 30 pM): > 10000 nM
- IC50 (second compound 94.9 pM): > 10000 nM
- IC50 (second compound 0.0003 µM): 2460 nM
- IC50 (second compound 0.000949 µM): < 31.6 nM
- IC50 (second compound 0.003 µM): < 31.6 nM
- viability, T/C (second compound 30 pM, first compound 0.0316 µM): 107%
- viability, T/C (second compound 30 pM, first compound 0.1 µM): 93.7%
- viability, T/C (second compound 30 pM, first compound 0.316 µM): 102%
- viability, T/C (second compound 30 pM, first compound 1 µM): 85.3%
- viability, T/C (second compound 30 pM, first compound 3.16 µM): 73.8%
- viability, T/C (second compound 30 pM, first compound 10 µM): 60.2%
- viability, T/C (second compound 94.9 pM, first compound 0.0316 µM): 98.4%
- viability, T/C (second compound 94.9 pM, first compound 0.1 µM): 107%
- viability, T/C (second compound 94.9 pM, first compound 0.316 µM): 104%
- viability, T/C (second compound 94.9 pM, first compound 1 µM): 86.9%
- viability, T/C (second compound 94.9 pM, first compound 3.16 µM): 79.2%
- viability, T/C (second compound 94.9 pM, first compound 10 µM): 51.1%
- viability, T/C (second compound 0.0003 µM, first compound 0.0316 µM): 63.8%
- viability, T/C (second compound 0.0003 µM, first compound 0.1 µM): 67.3%
- viability, T/C (second compound 0.0003 µM, first compound 0.316 µM): 62.6%
- viability, T/C (second compound 0.0003 µM, first compound 1 µM): 50.4%
- viability, T/C (second compound 0.0003 µM, first compound 3.16 µM): 48.7%
- viability, T/C (second compound 0.0003 µM, first compound 10 µM): 42.2%
- viability, T/C (second compound 0.000949 µM, first compound 0.0316 µM): 49.3%
- viability, T/C (second compound 0.000949 µM, first compound 0.1 µM): 43.8%
- viability, T/C (second compound 0.000949 µM, first compound 0.316 µM): 39.7%
- viability, T/C (second compound 0.000949 µM, first compound 1 µM): 43.1%
- viability, T/C (second compound 0.000949 µM, first compound 3.16 µM): 35.2%
- viability, T/C (second compound 0.000949 µM, first compound 10 µM): 10.1%
- viability, T/C (second compound 0.003 µM, first compound 0.0316 µM): 1.12%
- viability, T/C (second compound 0.003 µM, first compound 0.1 µM): 1.08%
- viability, T/C (second compound 0.003 µM, first compound 0.316 µM): 0.94%
- viability, T/C (second compound 0.003 µM, first compound 1 µM): 1.18%
- viability, T/C (second compound 0.003 µM, first compound 3.16 µM): 0.93%
- viability, T/C (second compound 0.003 µM, first compound 10 µM): 0.96%
